Test results as given in a melting point compilation (Tetko et al.).

Row | SMILES | melting point [°C]
1 | COC(=O)c1ccoc1CSc1ccccc1C(=O)O | 157 to 159
2 | Cc1ccnn1-c1cccc(N)c1 | 93 to 95
3 | Cc1cc(C)n2nc(S)nc2n1 | 259 to 261
4 | O=C(O)Cc1cc(Cl)c2c(c1)OCCO2 | 176 to 178
5 | Nc1nnc(Cc2ccc3ccccc3c2)o1 | 219 to 221
6 | Cc1ccc(CNC(=O)CC#N)cc1 | 127 to 129
7 | CC(C)(C)OC(=O)N1CCC(N2CC(O)C2)CC1 | 91 to 93
8 | O=C(O)C1CCCCN1c1ncccn1 (configuration not stated) | 156 to 158
9 | CCc1c(-c2ccncc2)n[nH]c1N | 154 to 156
10 | CNS(=O)(=O)c1ccc(Cl)s1 | 45 to 47
11 | NNC(=O)c1n[nH]c2c1CCCC2 | 176 to 178
12 | COc1csc(C(=O)O)c1 | 167 to 169
13 | CN(C)S(=O)(=O)c1cccc(N=C=S)c1 | 47 to 49
14 | CN1CCC/C1=N/S(=O)(=O)c1ccc(N)cc1 | 172 to 174
15 | CC(C)(C)OC(=O)C(C#N)c1nccnc1Cl (configuration not stated) | 62 to 64
16 | N=C1NS(=O)(=O)Cc2ccccc21 | 264 to 266
17 | O=C1OCC(c2ccc(Cl)cc2)=C1c1cccs1 | 65 to 67
18 | O=C(O)CCc1nc(-c2ccccc2)no1 | 138 to 140
19 | CCN1CCNC1=O | 75 to 77
20 | O=C(O)C1(Br)CCCC1 | 66 to 68
21 | O=C(O)CS(=O)(=O)Cc1cccs1 | 107 to 109
22 | O=C(NCCO)c1ccc(Cl)nn1 | 119 to 121

Row | SMILES | melting point [°C]
23 | CCCCN1C(=O)CCC(C(=O)O)C1c1ccccc1OC (configuration not stated) | 288 to 290
24 | O=C(O)COc1ccc2ccccc2c1Br | 158 to 160
25 | NC(=O)c1ccc(N)c(F)c1 | 152 to 154
26 | Cc1ccc(/C=C/C(=O)O)c(C)c1 | 182 to 184
27 | COC(=O)CCCc1nnc(N)s1 | 149 to 151
28 | C=CC(=O)NCc1ccc(F)cc1 | 118 to 120
29 | O=C(O)C1CCS(=O)(=O)CC1 | 184 to 186
30 | CC(C)(C)CCN1CCNCC1 | 119 to 122
31 | O=C(O)c1occc1COc1ccccc1 | 129 to 131
32 | OCc1ccc(N2CCN(c3ncccn3)CC2)c(F)c1 | 114 to 116
33 | CCOc1ccc(C(C)=O)cc1OCC | 49 to 51
34 | CC1Cc2ccccc2N1S(=O)(=O)c1cccc(C(=O)O)c1 (configuration not stated) | 170 to 172
35 | O=[N+]([O-])c1ccc2nc(Cl)ccc2c1 | 224 to 226
36 | NCc1cccc(NS(=O)(=O)c2ccc(Cl)cc2)c1 | 186 to 188
37 | NC(=O)c1cc(-c2ccccc2)sc1N | 200 to 210
38 | O=C(O)c1ccc(-c2cscn2)cc1 | 278 to 280
39 | NCCNS(=O)(=O)c1ccccc1 | 74 to 76
40 | O=[N+]([O-])c1ccc(F)cc1S(=O)(=O)Cl | 57 to 59
41 | O=C(O)CNc1ccc(C(F)(F)F)cn1 | 134 to 136
42 | O=C(O)CCc1cc2ccccc2[nH]c1=O | 227 to 229
43 | Cc1csc(C2(N)CCCC2)n1 | 59 to 61
44 | NC(=S)Cc1nc2ccccc2[nH]1 | 204 to 207

Row | SMILES | melting point [°C]
45 | CCOc1cc(/C=C/C(=O)O)ccc1OC | 164 to 166
46 | NCc1nnc(-c2cccc(Br)c2)o1 | 98 to 100
47 | CC(C)(C)C(Br)C(=O)O (configuration not stated) | 62 to 64
48 | COC(=O)c1ccc(NC(C)=O)c(C)c1 | 132 to 134
49 | NC(=S)Cc1ccccc1F | 92 to 94
50 | CNC(=O)c1cc(Oc2cccc(O)c2)ccn1 | 124 to 126
51 | CC(C)(C)c1ccc(C=C[N+](=O)[O-])cc1 | 44 to 46
52 | Nc1ccccc1N1CC(C(F)(F)F)OC1=O (configuration not stated) | 74 to 76
53 | COC(=O)c1n[nH]c(=O)c2noc(C)c12 | 215 to 217
54 | O=Cc1ccc(OCc2ccccc2)c(Br)c1 | 96 to 98
55 | CN(C)C1(C(=O)O)CCCSC1 (configuration not stated) | 196 to 198
56 | CCOC(=O)c1ccn(-c2cccc(N)c2)n1 | 97 to 99
57 | COc1cc(C)c(N)cc1OC | 39 to 41
58 | N#Cc1ccc(NC2CC2)cc1 | 79 to 81
59 | NC(=O)Nc1cccnc1 | 189 to 191
60 | O=c1[nH]cnc2cc(F)c([N+](=O)[O-])cc12 | 292 to 294
61 | COc1cccc(C2CC2C(=O)O)c1 (configuration not stated) | 90 to 92
62 | O=C(O)COCc1nc2ccccc2c(=O)[nH]1 | 259 to 261
63 | Cc1nn(-c2ccccc2)c(C(F)(F)Cl)c1C(=O)O | 144 to 146
64 | O=c1[nH]ncc2cccnc12 | 309 to 311
65 | CN(C)c1ccc(C#N)cn1 | 64 to 66
66 | O=S(=O)(Nc1ccccc1Br)N1CCOCC1 | 81 to 83

Row | SMILES | melting point [°C]
67 | Nc1ncncc1CO | 165 to 167
68 | Cc1ccccc1-c1cc(N)on1 | 99 to 101
69 | O=C(O)CCCS(=O)(=O)N1CCCC1 | 130 to 132
70 | CC(=O)c1nnn(-c2cccc(Br)c2)c1C | 74 to 76
71 | Cc1ccc(C=CCC(=O)O)cc1 | 105 to 107
72 | CC(=O)c1ccc(S(=O)(=O)NCCCC(=O)O)cc1 | 140 to 142
73 | Cc1sc(N=CN(C)C)c(C#N)c1C | 117 to 119
74 | O=C1CS/C(=C/C(=O)C2CC2)N1 | 188 to 190
75 | O=c1cc2c(n[nH]1)CCCC2 | 192 to 194
76 | O=C(CCl)NCC#Cc1cccc(C(F)(F)F)c1 | 80 to 82
77 | NC(=NO)c1cccc(CN2CCOCC2)c1 | 155 to 157
78 | NS(=O)(=O)c1ccc(Cl)c(S(=O)(=O)Cl)c1 | 185 to 187
79 | O=C(O)Cc1cccc(OCc2ccncc2)c1 | 138 to 140
80 | CC(C)c1cc(C(=O)O)on1 | 74 to 76
81 | COC(=O)Cc1ccccc1O | 69 to 71
82 | COc1ccc(N=C=S)cc1Cl | 88 to 90
83 | Oc1ccccc1OCc1cscn1 | 120 to 122
84 | Cc1cc2sc(N)nc2s1 | 117 to 119
85 | O=C1CCCOc2cc(F)ccc21 | 37 to 39
86 | O=Cc1cc(C23CC4CC(CC(C4)C2)C3)n[nH]1 | 134 to 136
87 | CC1=C(C(=O)O)CCC1 | 130 to 132
88 | CC1CSC(=S)N1 (configuration not stated) | 94 to 96

Row | SMILES | melting point [°C]
89 | O=C(C=NO)Nc1ccc2c(c1)OCCO2 | 130 to 132
90 | CC(C)CC1NC(=O)NC1=O (configuration not stated) | 215 to 217
91 | Cn1cccc1C=CC(=O)O | 153 to 155
92 | Cc1nnnn1-c1ccc(Br)cc1 | 116 to 118
93 | Clc1nc(-c2ccsc2)nc2sc3c(c12)CCCC3 | 148 to 150
94 | CCOc1ccc(S(=O)(=O)N(C)c2ccc(O)cc2)cc1 | 129 to 133
95 | O=C(O)C1(c2ccc(O)cc2)CCOCC1 | 170 to 172
96 | CC1(C)NC(=O)N(CCOc2ccc(N)cc2)C1=O | 147 to 149
97 | O=S(=O)(c1cccc(F)c1)N1CCNCC1 | 97 to 99
98 | O=C(CO)c1ccc(F)cc1F | 95 to 97
99 | COc1ccc(-c2ccc(C#N)cc2)cc1 | 102 to 104
100 | NNC(=S)NC1CCC1 | 96 to 98
101 | Cc1sc(N)nc1-c1ccc(OC(F)F)cc1 | 105 to 107
102 | Nc1ncc(Cc2cccc(C(F)(F)F)c2)s1 | 73 to 77
103 | O=C(COc1ccc(F)cc1)N1CCNCC1 | 89 to 91
104 | NC(=O)NCCc1cccs1 | 88 to 98
105 | CCOc1ccc(/C=C/C(=O)O)cc1OC | 202 to 204
106 | Oc1ccc(CN2CCCC2)c2cccnc12 | 112 to 114
107 | Cc1nn(C)c2ncc(C#N)cc12 | 176 to 178
